This is an account of results in patent publication US8026217B2, “Compositions and methods for treating neural anoxia and spreading depression” (Florida Atlantic University, priority 2007, dated 2011).

SMILES strings stand for the structures. Entries after “also recorded” stand apart in the source; their conditions may differ.

Assay [1] deals with metathoracic ganglion of the locust. Put plainly: SD-like events evoked by high-potassium (KCl 150 mM) injection into the locust metathoracic ganglion. The class given is in vivo, Locusta migratoria. The source says: CSD is increasingly accepted as a primary causative agent for migraine, particularly migraine with aura. The cellular mechanisms underlying stroke, seizures and migraine are not exclusive to mammals. Using the locust (Locusta migratoria), a proven model for examining the effects of heat stress on CNS activity, a rapid rise in extracellular potassium ([K^+]o) during anoxia/hypoxia, extreme heat, and ouabain exposure was monitored. This phenomenon has all the characteristics of SD in the neocortex of mammals. Since the physiological mechanisms observed in locust SD-like events are similar to that of mammals, findings in this insect model are predictably transferable to mammals, including humans. In the locust, model SD-like events were triggered in the CNS by injecting small volumes of saline containing high levels of potassium ions (KCl at 150 mM instead of the nominal resting level of 10 mM) into the metathoracic ganglion. Potassium-sensitive microelectrodes were used to measure SD generated by KCl injections, while manipulating the PKG pathway.
This tissue response is characterised by a transient surge and subsequent clearance of potassium ions in the extracellular space ([K^+]o). During SD-like events ventilatory motor activity ceases. This was monitored using an electromyographic electrode positioned on an abdominal muscle used for ventilation (Ventilatory EMG). Upon restoration of the potassium ion gradient the neural activity recovered and preparations began to ventilate again.
The first injection was used as a control. Following the first injection, animals were allowed 10 minutes of perfusion with standard locust saline before treatment with bath applications of selected drugs (i.e. KT5823, T-0156). All drugs were dissolved in a minimum amount of DMSO before further dilution with standard locust saline to a concentration of 10^−5M and were superfused over the metathoracic ganglion for 10 minutes before the second injection. A total of 20 minutes elapsed between the first and second injection in all experiments. As shown in Figure (Bi), duration at half the maximum amplitude was used to characterize the severity of SD-like events. A significant increase was observed following the second injection when compared to the first in control animals. […] Heat shock (HS) preconditioning reduced SD duration evoked by the first and second injections. […] Numbers in the histogram bars indicate number of preparations tested. Asterisks indicate statistically significant differences between the first and second injection ([…]).
Motor pattern activity was not measured for T-0156/Cantharidin treatments. […] Figure (Cii) illustrates the drug effects by showing the percentage difference in rhythm recovery time (second injection relative to first injection).
Single SD events were evoked by injection of saline (50 nL) containing elevated potassium chloride (150 mM vs. 10 mM) directly into the metathoracic ganglion. […] During SD, ventilatory motor activity monitored electromyographically (EMG) ceased and recovered upon restoration of the potassium ion gradient. The duration of the [K^+]o wave at half its maximal amplitude and the time from failure of motor patterning to the recovery of a ventilatory rhythm were measured. […] Numbers in brackets represent sample size.
As in Example 3, SD events were evoked by injection of saline (50 nL) containing elevated potassium chloride (150 mM vs. 10 mM) directly into the metathoracic ganglion of locust preparations.

For the next assay, the system named is zebrafish. Put plainly: Zebrafish behaviour during acute anoxia. Type of assay: in vivo. Conditions: whole zebrafish in anoxic water post-treatment; expected. The source says:
Vertebrate (zebrafish) behaviour is examined during acute anoxia. Whole zebrafish are exposed to anoxic water post-treatment with a PDE5 inhibitor, 8-bromo-GMP, KT5823, and Cantharidin. The time until the animal knocks out during anoxia is monitored.

The test system of another assay is PKG. Put plainly: PKG enzyme activity assay on heads of treated flies. Conditions: heads of sitter flies treated in vivo with volatilized agent, versus sham control. The class given is biochemical, Drosophila melanogaster. On the procedure:
PKG enzyme activity assays: PKG enzyme activity assays were conducted according to the procedure outlined in Kaun et al. (J Exp Biol. 210(Pt 20):3547-3558, 2007). Adult Drosophila were decapitated and the heads were homogenized in 25 mM 1-1 Tris (pH 7.4), 1 mM 1-1 EDTA, 2 mM 1-1 EGTA, 5 mM 1-1 β-mercaptoethanol, 0.05% Triton X-100 and protease inhibitor solution (Roche Diagnostics). Following microcentrifugation for 5 min, the supernatant was removed and those supernatants containing equal amounts of total protein were examined for PKG enzyme activity. The reaction mixture contained the following substances: 40 mM 1-1 Tris-HCl (pH 7.4), 20 mM 1-1 magnesium acetate, 0.2 mM 1-1 [γ^32P]ATP (500-1000 c.p.m. pmol−1), […] heptapeptide (RKRSRAE), (SEQ ID NO:6), (3 mM 1-1 cGMP and a highly specific inhibitor of cAMP-dependent protein kinase. The next step of the procedure involved incubating the reaction mixtures at a temperature of 30° C. for 10 min, followed by ending the reaction by spotting 70 μl of the reaction mixture onto Whatman P-81 filters. To remove any unreacted [γ^32P]ATP, these spots were then soaked with 75 mM 1-1 H3PO4 for 5 min and washed three times with 75 mM 1-1 H3PO4. Before quantifying enzyme activity, filters were rinsed with 100% ethanol and air dried. To calculate PKG enzyme activity, counts were taken in a Wallac 1409 Liquid Scintillation Counter using universal scintillation cocktail (ICN). PKG activity was presented in the figures as pmol of ^32P incorporated into the substrate min−1 mg−1 protein.

The test system of the next assay is respiratory brain slices. The assay can be described thus: Neural function in respiratory brain slices during sodium azide-induced anoxia. On the set-up: species or system mouse or rat. Conditions: expected. The source says: Neural function in mammals (mouse or rat) is examined pharmacologically during acute anoxia in respiratory brain slices via sodium azide, which chemically induces anoxia. Following administration of the sodium azide, the time until neural failure is monitored. This is done in the presence of a PDE5 inhibitor, 8-bromo-GMP, KT5823, and Cantharidin.

On to `Nc1nc2c(nc(Br)n2[C@@H]2O[C@@H]3COP(=O)(O)O[C@H]3[C@H]2O)c(=O)[nH]1` [8-Br-cGMP], for which, in assay [1] (Example 3, drug applied for 10 minutes prior to second injection, FIG. 3D), the “recovery time of ventilatory rhythm, second event versus first” value was “The recovery time was increased”. Besides, the “time until the animal knocks out during anoxia” value in the assay on zebrafish is “increased sensitivity to anoxia causing early failure of behaviour (neural function)”. Moreover, the “head PKG enzyme activity” value with PKG (listed as 8-Bromo cGMP) was “demonstrated significant effects compared to that of the sham control”; with PKG (listed as 8-bromo cGMP), “induced an increase in head PKG activity levels; also recorded: increasing head PKG activity levels significantly beyond rover levels”. In the assay with respiratory brain slices, the “time until neural failure” value is reported as “increased sensitivity to anoxia causing early failure of neural function”.

In the case of `COC(=O)[C@@]1(OC)C[C@H]2O[C@]1(C)n1c3ccccc3c3c4c(c5c6ccccc6n2c5c31)C(=O)N(C)C4` [KT5823, (9S, 10R, 12R)-2,3,9,10,11,12-Hexahydro-10-methoxy-2-9-dimethyl-1-oxo-9,12-epoxy-1H-diindolo-[1,2,3-fg:3′,2′,1′-k1]pyrrolo[3,4-i][1,6]benzodiazocine-10-carboxylic acid methyl ester], in assay [1] (Example 1, bath application 10^-5 M for 10 minutes before second KCl injection), the “length of time to recover ventilatory motor pattern activity after SD” value is “untreated preparations and those treated with T-0156 took significantly longer to recover”. For the same compound, the “time until the animal knocks out during anoxia” value in the assay on zebrafish was “neuroprotection and prolonged behaviour when subject to anoxia”. For the same compound, the “head PKG enzyme activity” value with PKG is given as “significantly reducing PKG activity; also recorded: demonstrated significant effects compared to that of the sham control”. Besides, in the assay with respiratory brain slices, the “time until neural failure” value was “neuroprotection and prolonged neural function when subject to anoxia”.
